Experimental data taken from patent publication US7276339B2 (H. Lundbeck A/S, priority 1998, dated 2007).
Entries after “also recorded” stand apart in the source; their conditions may differ. Non-standard residues stand in square brackets, D forms with d. Residues, ends and D or L forms follow the SMILES beside them. No end group written: not given here. NMeF = CN[C@@H](Cc1ccccc1)C(=O)O

Columns and labels:
[1] = tested on: NPFF receptors; details: cited from earlier work; for inhibition of [125I](1DMe)Y8Fa binding: 10 μM
[2] = molecular target: T1, NPFF1 (SNORF2) (Rattus norvegicus, UniProt Q9EP86); assay: Voltage-clamp electrophysiology, Xenopus oocytes injected with SNORF2 (NPFF1) and chimeric Gαq/z RNA; type: cell-based; details: for activation of oocytes injected with SNORF2 synthetic RNA: concentration not given; for inward current response: 1 μM, oocytes with SNORF2 + Gαq/z, holding potential −80 mV
T1 construct: linearized plasmids or PCR products containing the complete coding region of the genes; expressed in transfected cells; host or cells: Xenopus laevis oocytes injected with synthetic RNA (T7 transcripts)
T1 sequence (Q9EP86 whole entry): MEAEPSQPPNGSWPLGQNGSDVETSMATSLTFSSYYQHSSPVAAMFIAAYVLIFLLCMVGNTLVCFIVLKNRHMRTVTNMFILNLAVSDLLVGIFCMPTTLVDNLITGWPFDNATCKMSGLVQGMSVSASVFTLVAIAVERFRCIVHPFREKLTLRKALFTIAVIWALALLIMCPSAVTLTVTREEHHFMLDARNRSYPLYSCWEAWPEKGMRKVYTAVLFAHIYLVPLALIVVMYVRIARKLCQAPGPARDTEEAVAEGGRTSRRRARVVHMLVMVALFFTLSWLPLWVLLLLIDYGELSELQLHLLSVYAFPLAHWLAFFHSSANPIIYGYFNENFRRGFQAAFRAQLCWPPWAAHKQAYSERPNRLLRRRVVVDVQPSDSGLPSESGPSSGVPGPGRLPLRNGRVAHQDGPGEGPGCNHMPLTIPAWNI
Method: (§1) Oocytes were harvested from Xenopus laevis and injected with mRNA transcripts as previously described (Quick and Lester, 1994; Smith et al., 1997). […] Three to eight hours prior to recording, oocytes were injected with 500 pg Gαq/z mRNA in order to observe coupling to Ca^++ activated Cl^− currents. Dual electrode voltage clamp (Axon Instruments Inc.) was performed using 3 M KCl-filled glass microelectrodes having resistances of 1-2 Mohm. Unless otherwise specified, oocytes were voltage clamped at a holding potential of −80 mV. During recordings, oocytes were bathed in continuously flowing (1-3 ml/min) medium containing 96 mM NaCl, 2 mM KCl, 1.8 mM CaCl2, 1 mM MgCl2, and 5 mM HEPES, pH 7.5 (ND96). Drugs were applied either by local perfusion from a […] glass capillary tube fixed at a distance of 0.5 mm from the oocyte, or by switching from a series of gravity fed perfusion lines.
(§2) Heterologous expression of GPCRs in Xenopus oocytes has been widely used to determine the identity of signaling pathways activated by agonist stimulation (Gundersen et al., 1983; Takahashi et al., 1987). Activation of the phospholipase C (PLC) pathway is assayed by applying test compound in ND96 solution to oocytes previously injected with mRNA for the mammalian receptor and observing inward currents at a holding potential of −80 mV. The appearance of currents that reverse at −25 mV and display other properties of the Ca^++-activated Cl^− (chloride) channel is indicative of mammalian receptor-activation of PLC and release of IP3 and intracellular Ca^++.

[3] = molecular target: rat spinal cord membrane receptor; assay: [125I]D-Tyr-NPFF radioligand binding, rat spinal cord membranes; details: competition of [125I]D-Tyr-NPFF binding; * = differs from NPFF1
Source text: The binding profile of rat NPFF1 was compared to that of rat spinal cord membranes. […] (See * Table 2).

[4] = molecular target: rat NPFF1 receptor (Rattus norvegicus, UniProt Q9EP86); assay: [125I]D-Tyr-NPFF radioligand binding, membranes of COS-7 cells transiently expressing cloned rat NPFF1; parameters: expressed in transfected cells; host or cells: COS-7 (transient)
rat NPFF1 receptor, sequence (Q9EP86 whole entry): as above
Method: Transfected cells from culture flasks are scraped into 5 ml of 20 mM Tris-HCl, 5 mM EDTA, pH 7.5, and lysed by sonication. The cell lysates are centrifuged at 1000 rpm for 5 min. at 4° C., and the supernatant is centrifuged at 30,000×g for 20 min. at 4° C. […] Optimal membrane suspension dilutions, defined as the protein concentration required to bind less than 10% of the added radioligand, […], unlabeled compounds, and binding buffer to a final volume of 250 μl. In equilibrium saturation binding assays membrane preparations are incubated in the presence of increasing concentrations of [^3H]-labeled compound. […] Competition assay: 50 pM radioligand, 10-12 points. Binding reaction mixtures are incubated for 2 hr at 25° C., and the reaction stopped by filtration through a double layer of GF filters treated with 0.1% polyethyleneimine, using a cell harvester. Wash buffer: 50 mM Tris-HCl, 0.1% BSA. Radioactivity may be measured by scintillation counting and data are analyzed by a computerized non-linear regression program. Non-specific binding is defined as the amount of radioactivity remaining after incubation of membrane protein in the presence of 1 μM final concentration […]. Protein concentration may be measured by the Bradford method using Bio-Rad Reagent, with bovine serum albumin as a standard.
Cos-7 cells transiently expressing the gene encoding the novel rat NPFF1 receptor were used for pharmacological evaluation.

[5] = molecular target: T2, NPFF2 (NPFF-like) (Homo sapiens, UniProt Q9Y5X5); assay: Voltage-clamp electrophysiology, Xenopus oocytes injected with NPFF-like (NPFF2) and chimeric Gαq/z RNA; type: cell-based; details: 1 μM, holding potential −80 mV
T2 construct: linearized plasmids or PCR products containing the complete coding region of the genes; expressed in transfected cells; host or cells: Xenopus laevis oocytes injected with mRNA from ligation PCR products or linearized BO89
T2 sequence (Q9Y5X5 103-522): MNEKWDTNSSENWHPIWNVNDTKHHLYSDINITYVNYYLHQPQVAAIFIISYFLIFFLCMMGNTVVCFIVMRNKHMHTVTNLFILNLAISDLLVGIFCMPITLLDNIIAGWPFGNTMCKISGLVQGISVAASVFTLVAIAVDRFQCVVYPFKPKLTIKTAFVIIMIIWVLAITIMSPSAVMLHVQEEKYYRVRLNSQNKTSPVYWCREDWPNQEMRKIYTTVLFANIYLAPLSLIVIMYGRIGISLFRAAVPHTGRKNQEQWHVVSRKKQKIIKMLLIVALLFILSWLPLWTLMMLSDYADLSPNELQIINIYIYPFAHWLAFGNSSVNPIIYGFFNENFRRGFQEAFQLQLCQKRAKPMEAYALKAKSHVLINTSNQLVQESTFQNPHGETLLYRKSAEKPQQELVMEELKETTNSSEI
Method: For expression of NPFF2, mRNA transcripts were generated as described for NPFF1, using PCR products from ligation reactions or linearized DNA from BO89 as DNA templates. Oocytes were injected with 5-50 ng NPFF2 mRNA and incubated as previously described.
as §1, §2

[6] = molecular target: T3, human NPFF2 receptor (Homo sapiens, UniProt Q9Y5X5); assay: [125I]D-Tyr-NPFF radioligand binding, HEK-293 cells expressing human NPFF2; details: from competition binding pKi
T3 construct: BO89, was determined to be a full length clone with no point mutations; expressed in transfected cells; host or cells: HEK-293 (transient)
T3 sequence (Q9Y5X5 103-522): as above
Method: (§3) Transfected cells from culture flasks are scraped into 5 ml of 20 mM Tris-HCl, 5 mM EDTA, pH 7.5, and lysed by sonication. The cell lysates are centrifuged at 1000 rpm for 5 min. at 4° C., and the supernatant is centrifuged at 30,000×g for 20 min. at 4° C. The pellet is suspended in binding buffer (50 mM Tris-HCl, 60 mM NaCl, 1 mM MgCl, 33 μM EDTA, 33 μM EGTA at pH 7.4 supplemented with 0.2% BSA, 2 μg/ml aprotinin, and 20 μM bestatin). Optimal membrane suspension dilutions, defined as the protein concentration required to bind less than 10% of the added radioligand, are added to 96-well polpropylene microtiter plates containing ^3H-labeled compound, unlabeled compounds, and binding buffer to a final volume of 250 μl. In equilibrium saturation binding assays membrane preparations are incubated in the presence of increasing concentrations of [^3H]-labeled compound. The binding affinities of the different compounds are determined in equilibrium competition binding assays, using [^125I]-labeled compound in the presence of ten to twelve different concentrations of the displacing ligands. Competition assay: 50 pM radioligand, 10-12 points. Binding reaction mixtures are incubated for 2 hr at 25° C., and the reaction stopped by filtration through a double layer of GF filters treated with 0.1% polyethyleneimine, using a cell harvester. Wash buffer: 50 mM Tris-HCl, 0.1% BSA. Radioactivity may be measured by scintillation counting and data are analyzed by a computerized non-linear regression program. Non-specific binding is defined as the amount of radioactivity remaining after incubation of membrane protein in the presence of 1 μM final concentration […]. Protein concentration may be measured by the Bradford method using Bio-Rad Reagent, with bovine serum albumin as a standard.
(§4) Additional pharmacological evaluation was done using 293 human embryonic kidney cells (HEK-293 cells) transiently expressing the genes encoding the human NPFF1, NPFF2, and rat NPFF1 receptors, as well as Cos-7 cells expressing the rat NPFF2 receptors.

[7] = molecular target: T4, rat NPFF2 receptor (Rattus norvegicus, UniProt Q9EQD2); assay: [125I]D-Tyr-NPFF radioligand binding, cloned rat NPFF2; details: from competition binding pKi
T4 construct: The full-length rat NPFF2 clone was amplified from rat spinal cord cDNA; expressed in transfected cells; host or cells: COS-7
T4 sequence (Q9EQD2 whole entry): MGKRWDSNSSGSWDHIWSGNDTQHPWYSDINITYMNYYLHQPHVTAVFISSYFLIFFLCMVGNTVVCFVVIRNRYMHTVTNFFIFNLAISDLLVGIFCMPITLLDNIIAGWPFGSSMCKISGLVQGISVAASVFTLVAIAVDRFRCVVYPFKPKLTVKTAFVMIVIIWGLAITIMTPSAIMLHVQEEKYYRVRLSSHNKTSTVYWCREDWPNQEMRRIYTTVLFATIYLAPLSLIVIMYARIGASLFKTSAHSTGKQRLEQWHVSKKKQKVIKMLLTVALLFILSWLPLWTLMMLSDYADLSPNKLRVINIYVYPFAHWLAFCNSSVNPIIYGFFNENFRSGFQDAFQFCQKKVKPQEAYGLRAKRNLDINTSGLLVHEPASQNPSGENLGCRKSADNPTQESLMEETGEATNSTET
Method: as §3, §4

[8] = tested on: anesthetized rats; assay: Distension-induced rhythmic contraction (DIRC) model of the micturition reflex in anesthetized rats; type: in vivo, rat; details: i.v.; fPP 0.1 mg/kg
Method: The effects of compounds on the micturition reflex were assessed in the “distension-induced rhythmic contraction” (DIRC) model in rats. This model of the micturition reflex has been described in previous publications (e.g. 72, 73).
Female Sprague Dawley rats weighing approximately 300 g were anesthetized with subcutaneous urethane (1.2 g/kg). The trachea was cannulated with PE240 tubing to provide a clear airway throughout the experiment. A midline abdominal incision was made and the left and right ureters were isolated. The ureters were ligated distally (to prevent escape of fluids from the bladder) and cannulated proximally with PE10 tubing. The incision was closed using 4-0 silk sutures, leaving the PE10 lines routed to the exterior for the elimination of urine. The bladder was canulated via the transurethral route using PE50 tubing inserted 2.5 cm beyond the urethral opening. This cannula was secured to the tail using tape and connected to a pressure transducer. To prevent leakage from the bladder, the cannula was tied tightly to the exterior urethral opening using 4-0 silk.
To initiate the micturition reflex, the bladder was first emptied by applying pressure to the lower abdomen, and then filled with normal saline in 100 μl increments (maximum=2 ml) until spontaneous bladder contractions occurred (typically 20-40 mmHg at a rate of one contraction every 2 to 3 minutes. Once a regular rhythm was established, vehicle (saline) or test compounds were administered intravenously to examine their effects on bladder activity. The effect of a compound which inhibited the micturition reflex was expressed as its “disappearance time”, defined as the time between successive bladder contractions in the presence of the test compound minus the time between contractions before compound administration.

[9] = competition of [125I]D-Tyr-NPFF binding, COS-7 membranes

Molecule: CSCC[C@H](NC(=O)[C@H](CC(C)C)NC(=O)CNC(=O)[C@H](Cc1ccccc1)NC(=O)[C@H](Cc1ccccc1)NC(=O)[C@H](CCC(N)=O)NC(=O)[C@H](CCC(N)=O)NC(=O)[C@@H]1CCCN1C(=O)[C@H](CCCCN)NC(=O)[C@@H]1CCCN1C(=O)[C@@H](N)CCCN=C(N)N)C(N)=O [substance P]
- inhibition of [125I](1DMe)Y8Fa binding [1]: No inhibition

Molecule: orexin B
- activation of oocytes injected with SNORF2 synthetic RNA [2]: failed to activate

Molecule: CC(C)C[C@H](NC(=O)[C@H](N)Cc1ccc(O)cc1)C(=O)N(C)[C@@H](Cc1ccccc1)C(=O)N[C@@H](CCC(N)=O)C(=O)N1CCC[C@H]1C(=O)N[C@@H](CCC(N)=O)C(=O)N[C@@H](CCCNC(=N)N)C(=O)N[C@@H](Cc1ccccc1)C(N)=O [(D-Tyr^1-(NMe)Phe^3)NPFF] (H-[dY]L[NMeF]QPQRF-NH2; N-terminus assumed)
- pKi for rat spinal cord membrane receptor binding, MEAN [3]: *9.724
- Ki ([1]; spinal cord membranes, read-out: Ki, inhibition of [125I](1DMe)Y8Fa binding): 0.16 nM

Molecule: NCCc1c[nH]c2ccc(O)cc12 [5-HT]
- activation of oocytes injected with SNORF2 synthetic RNA [2]: failed to activate

Molecule: AGEGLSSPYWSLAAPQRF-NH2 [[Y^9]A18Fa]
- pKi for rat spinal cord membrane receptor binding, MEAN [3]: *8.502
- inward current response [2]: displayed activity

Molecule: CN1CC[C@]23c4c5ccc(O)c4O[C@H]2[C@@H](O)C=C[C@H]3[C@H]1C5 [morphine]
- inhibition of [125I](1DMe)Y8Fa binding [1]: No inhibition

Molecule: YLFQPQRF-NH2 [Y8Fa]
- pKi for rat spinal cord membrane receptor binding, MEAN [3]: *9.189
- inward current response [2]: displayed activity

Molecule: melanin concentrating hormone
- activation of oocytes injected with SNORF2 synthetic RNA [2]: failed to activate

Molecule: PDKDFIVNPSDLVLDNKAALRDYLRQINEYFAIIGRPRF-NH2 (C-terminus assumed) [Neuropeptide F]
- pKi for rat spinal cord membrane receptor binding, MEAN [3]: *8.100
- pKi for cloned rat NPFF1 receptor binding in COS-7 cells, MEAN [4, 9]: 6.11

Molecule: N=C(N)NCCC[C@H](NC(=O)[C@H](Cc1ccccc1)NC(=O)[C@@H](N)Cc1ccccc1)C(=O)N[C@@H](Cc1ccccc1)C(N)=O [FFRF] (H-FFRF-NH2; N-terminus and C-terminus assumed)
- pKi for rat spinal cord membrane receptor binding, MEAN [3]: 8.98
- pKi for cloned rat NPFF1 receptor binding in COS-7 cells, MEAN [4, 9]: 8

Molecule: NPY
- inward current response [5]: failed to activate; also recorded: no response
- inhibition of [125I](1DMe)Y8Fa binding [1]: No inhibition

Molecule: orexin A (QPLPDCCRQKTCSCRLYELLHGAGNHAAGILTL; ends and bridges not checked; cysteine pairing not given here; UniProt O43612 34-66, looked up)
- inward current response [5]: failed to activate; also recorded: no response

Molecule: H-KNQFIRF-NH2 [AF-1, H2N-Lys-Asn-Gln-Phe-Ile-Arg-Phe-NH2]
- pKi for rat spinal cord membrane receptor binding, MEAN [3]: *7.563
- Ki ([4]; competition of [125I]D-Tyr-NPFF binding, COS-7 membranes, read-out: pKi for cloned rat NPFF1 receptor binding in COS-7 cells, MEAN (converted)): 232 nM

Molecule: C[C@@H](O)[C@H](NC(=O)[C@@H](N)Cc1ccccc1)C(=O)N[C@@H](CCCNC(=N)N)C(=O)N[C@@H](Cc1ccccc1)C(N)=O [FTRF] (H-FTRF-NH2; N-terminus and C-terminus assumed)
- pKi for rat spinal cord membrane receptor binding, MEAN [3]: 8.16
- pKi for cloned rat NPFF1 receptor binding in COS-7 cells, MEAN [4, 9]: 7.87

Molecule: neurokinin A
- inward current response [5]: failed to activate; also recorded: no response

Molecule: APSEPHHPGDQATQDQLAQYYSDLYQYITFVTRPRF-NH2 (C-terminus assumed) [fPP]
- pKi for rat spinal cord membrane receptor binding, MEAN [3]: *9.118
- fold greater affinity for human NPFF2 compared to human NPFF1 [6]: 77 fold
- fold greater affinity for rat NPFF2 compared to rat NPFF1 [7]: 31 fold
- effect on distension-induced rhythmic contractions of the bladder [8]: inhibited
- pKi for cloned rat NPFF1 receptor binding in COS-7 cells, MEAN [4, 9]: 5.5
- displacement of [125I]D-Tyr-NPFF binding on the NPFF1 receptor ([4]; up to 1 uM): did not displace

B1: CCK: unrelated neuropeptide (peptide, UniProt P06307 21-115, looked up)
Cholecystokinin: QPVPPADPAGSGLQRAEEAPRRQLRVSQRTDGESRAHLGALLARYIQQARKAPSGRMSIVKNLQNLDPSHRISDRDYMGWMDFGRRSAEEYEYPS
modifications: Cholecystokinin
notes: unrelated neuropeptide
- activation of oocytes injected with SNORF2 synthetic RNA [2]: failed to activate
